Measurements from patent publication US20260022142A1, “MACROCYCLIC IMMUNOMODULATORS” (Bristol-Myers Squibb Company, priority 2022, published 2026).
Bridge positions count the residues as written; N and C are the ends. Square brackets hold non-standard residues; d marks the D form. Peptide text beside a SMILES is read from it. * marks the point of attachment. ξ: configuration not given here. Phe(4-COOH) = N[C@@H](Cc1ccc(C(=O)O)cc1)C(=O)O; Bip = N[C@@H](Cc1ccc(-c2ccccc2)cc1)C(=O)O; Phe(3-Me) = Cc1cccc(C[C@H](N)C(=O)O)c1; hArg = N=C(N)NCCCC[C@H](N)C(=O)O; Cha = N[C@@H](CC1CCCCC1)C(=O)O; Cit = NC(=O)NCCC[C@H](N)C(=O)O; Thr(3ξ) = CC(O)[C@H](N)C(=O)O; Carboxymethyl = O=C(O)C*; Orn = NCCC[C@H](N)C(=O)O; Aun = NCCCCCCCCCCC(=O)O; Dab = NCC[C@H](N)C(=O)O; Dap = NC[C@H](N)C(=O)O; AEEA = NCCOCCOCC(=O)O

Molecular target: T1, PD-1/PD-L1 interaction (PE-labeled human PD-L1-Ig binding to Jurkat cell line over-expressing human PD-1) (Homo sapiens, UniProt Q15116)
T1 construct: expressed in transfected cells; host or cells: Jurkat
Test: Jurkat-PD-1 Cell Binding High-Content Screening Assay (CBA)
Assay type: cell-based
Details: Jurkat cell line over-expressing human PD-1; PE-labeled PD-L1-Ig 20 nM final; read-out: Jurkat hPD1-PDL1 IC50
In short: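 Binding of fluorescent PD-L1-Ig (20 nM final) to Jurkat-PD-1 cells was measured by automated imaging after 1 h, following a 2 h compound pre-treatment at 37° C.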

T1 sequence (Q15116 25-288): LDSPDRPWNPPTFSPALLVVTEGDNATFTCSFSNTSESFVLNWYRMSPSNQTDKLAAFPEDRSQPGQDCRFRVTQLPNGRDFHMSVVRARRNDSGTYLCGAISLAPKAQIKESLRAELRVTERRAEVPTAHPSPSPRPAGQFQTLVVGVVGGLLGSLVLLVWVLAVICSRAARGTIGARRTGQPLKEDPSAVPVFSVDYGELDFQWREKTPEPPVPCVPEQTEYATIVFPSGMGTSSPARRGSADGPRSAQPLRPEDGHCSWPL

Row | IC50 [nM] | Compound
1 | 10.9 | CC(C)C[C@H]1NC(=O)[C@H](CCN)NC(=O)[C@H](C(C)C)NC(=O)[C@H](Cc2ccc(-c3ccccc3)cc2)NC(=O)[C@H](C(C)C)NC(=O)[C@H](Cc2c[nH]c3ccccc23)NC(=O)[C@H](CC(=O)O)NC(=O)[C@H](Cc2ccc(C(=O)O)cc2)NC(=O)[C@H](Cc2ccc(OCC(=O)O)cc2)NC(=O)CSC[C@@H](C(=O)N[C@@H](CCN)C(=O)NCCOCCOCC(=O)NCCCCCCCCCCC(=O)O)NC(=O)[C@H](CCCN)NC(=O)[C@H](C(C)C)NC(=O)[C@H](CC2CCCCC2)NC(=O)[C@H](CCN)NC1=O [Compound 3243] ({CH2CO}-Y(Carboxymethyl)[Phe(4-COOH)]DWV[Bip]V[Dab][dL][Dab][Cha]V[Orn]C[Dab][AEEA][Aun]-OH; thioether N-14)
2 | 10.9 | Cc1cccc(C[C@@H]2NC(=O)[C@H](CC(=O)O)NC(=O)[C@H](Cc3ccc(OCC(=O)O)cc3)NC(=O)[C@H](CCCCNC(=N)N)NC(=O)CSC[C@@H](C(=O)N[C@@H](CCN)C(=O)NCCOCCOCC(=O)NCCCCCCCCCCC(=O)O)NC(=O)[C@H](CCCN)NC(=O)[C@H](C(C)C)NC(=O)[C@H](CC3CCCCC3)NC(=O)[C@H](CCN)NC(=O)[C@@H](CC(C)C)NC(=O)[C@H](CN)NC(=O)[C@H](C(C)C)NC(=O)[C@H](Cc3ccc(-c4ccccc4)cc3)NC(=O)[C@H](C(C)C)NC2=O)c1 [Compound 3244] ({CH2CO}-[hArg]Y(Carboxymethyl)D[Phe(3-Me)]V[Bip]V[Dap][dL][Dab][Cha]V[Orn]C[Dab][AEEA][Aun]-OH; thioether N-14)
3 | 11 | Cc1cccc(C[C@@H]2NC(=O)[C@H](CC(=O)O)NC(=O)[C@H](Cc3ccc(OCC(=O)O)cc3)NC(=O)[C@H](CCCCNC(=N)N)NC(=O)CSC[C@@H](C(=O)N[C@@H](CCN)C(=O)NCCOCCOCC(=O)NCCCCCCCCCCC(=O)O)NC(=O)[C@H](CCCN)NC(=O)[C@H](C(C)C)NC(=O)[C@H](CC3CCCCC3)NC(=O)[C@H](CCN)NC(=O)[C@@H](CC(C)C)NC(=O)[C@H](CCCN)NC(=O)[C@H](C(C)C)NC(=O)[C@H](Cc3ccc(-c4ccccc4)cc3)NC(=O)[C@H](C(C)C)NC2=O)c1 [Compound 3245] ({CH2CO}-[hArg]Y(Carboxymethyl)D[Phe(3-Me)]V[Bip]V[Orn][dL][Dab][Cha]V[Orn]C[Dab][AEEA][Aun]-OH; thioether N-14)
4 | 26.5 | Cc1cccc(C[C@@H]2NC(=O)[C@H](CC(=O)O)NC(=O)[C@H](Cc3ccc(OCC(=O)O)cc3)NC(=O)[C@H](CCCCNC(=N)N)NC(=O)CSC[C@@H](C(=O)NCC(=O)NCCOCCOCC(=O)N[C@@H](CCN)C(=O)NCCCCCCCCCCC(=O)O)NC(=O)[C@H](CCCN)NC(=O)[C@H](C(C)C)NC(=O)[C@H](CC3CCCCC3)NC(=O)[C@H](CCN)NC(=O)[C@@H](CC(C)C)NC(=O)[C@H](CCCN)NC(=O)[C@H](C(C)C)NC(=O)[C@H](Cc3ccc(-c4ccccc4)cc3)NC(=O)[C@H](C(C)C)NC2=O)c1 [Compound 3246] ({CH2CO}-[hArg]Y(Carboxymethyl)D[Phe(3-Me)]V[Bip]V[Orn][dL][Dab][Cha]V[Orn]CG[AEEA][Dab][Aun]-OH; thioether N-14)
5 | 14.8 | Cc1cccc(C[C@@H]2NC(=O)[C@H](CC(=O)O)NC(=O)[C@H](Cc3ccc(OCC(=O)O)cc3)NC(=O)[C@H](CCCCNC(=N)N)NC(=O)CSC[C@@H](C(=O)N[C@@H](CCCN)C(=O)NCCCCCCCCCCC(=O)O)NC(=O)[C@H](CCCN)NC(=O)[C@H](C(C)C)NC(=O)[C@H](CC3CCCCC3)NC(=O)[C@H](CCN)NC(=O)[C@@H](CC(C)C)NC(=O)[C@H](CCCN)NC(=O)[C@H](C(C)C)NC(=O)[C@H](Cc3ccc(-c4ccccc4)cc3)NC(=O)[C@H](C(C)C)NC2=O)c1 [Compound 3247] ({CH2CO}-[hArg]Y(Carboxymethyl)D[Phe(3-Me)]V[Bip]V[Orn][dL][Dab][Cha]V[Orn]C[Orn][Aun]-OH; thioether N-14)
6 | 3.6 | Cc1cccc(C[C@@H]2NC(=O)[C@H](CC(=O)O)NC(=O)[C@H](Cc3ccc(OCC(=O)O)cc3)NC(=O)[C@H](CCCCNC(=N)N)NC(=O)CSC[C@@H](C(=O)NCCOCCOCC(=O)N[C@@H](CCN)C(=O)NCCCCCCCCCCC(=O)O)NC(=O)[C@H](CCCN)NC(=O)[C@H](C(C)C)NC(=O)[C@H](CC3CCCCC3)NC(=O)[C@H](CCN)NC(=O)[C@@H](CC(C)C)NC(=O)[C@H](CCCN)NC(=O)[C@H](C(C)C)NC(=O)[C@H](Cc3ccc(-c4ccccc4)cc3)NC(=O)[C@H](C(C)C)NC2=O)c1 [Compound 3248] ({CH2CO}-[hArg]Y(Carboxymethyl)D[Phe(3-Me)]V[Bip]V[Orn][dL][Dab][Cha]V[Orn]C[AEEA][Dab][Aun]-OH; thioether N-14)
7 | 25.6 | Cc1cccc(C[C@@H]2NC(=O)[C@H](CC(=O)O)NC(=O)[C@H](Cc3ccc(OCC(=O)O)cc3)NC(=O)[C@H](CCCCNC(=N)N)NC(=O)CSC[C@@H](C(=O)NCCOCCOCC(=O)N[C@@H](CCN)C(=O)NCCCCCCCCCCC(=O)O)NC(=O)[C@H](CCCN)NC(=O)[C@H](C(C)C)NC(=O)[C@H](CC3CCCCC3)NC(=O)[C@H](CN)NC(=O)[C@@H](CC(C)C)NC(=O)[C@H](CCCN)NC(=O)[C@H](C(C)C)NC(=O)[C@H](Cc3ccc(-c4ccccc4)cc3)NC(=O)[C@H](C(C)C)NC2=O)c1 [Compound 3249] ({CH2CO}-[hArg]Y(Carboxymethyl)D[Phe(3-Me)]V[Bip]V[Orn][dL][Dap][Cha]V[Orn]C[AEEA][Dab][Aun]-OH; thioether N-14)
8 | 5.7 | Cc1cccc(C[C@@H]2NC(=O)[C@H](CC(=O)O)NC(=O)[C@H](Cc3ccc(OCC(=O)O)cc3)NC(=O)[C@H](CCCCNC(=N)N)NC(=O)CSC[C@@H](C(=O)NCCOCCOCC(=O)N[C@@H](CCN)C(=O)NCCCCCCCCCCC(=O)O)NC(=O)[C@H](CCCN)NC(=O)[C@H](C(C)C)NC(=O)[C@H](CC3CCCCC3)NC(=O)[C@H](CCN)NC(=O)[C@@H](CC(C)C)NC(=O)[C@H](CCN)NC(=O)[C@H](C(C)C)NC(=O)[C@H](Cc3ccc(-c4ccccc4)cc3)NC(=O)[C@H](C(C)C)NC2=O)c1 [Compound 3251] ({CH2CO}-[hArg]Y(Carboxymethyl)D[Phe(3-Me)]V[Bip]V[Dab][dL][Dab][Cha]V[Orn]C[AEEA][Dab][Aun]-OH; thioether N-14)
9 | 7.4 | Cc1cccc(C[C@@H]2NC(=O)[C@H](CC(=O)O)NC(=O)[C@H](Cc3ccc(OCC(=O)O)cc3)NC(=O)[C@H](CCCCNC(=N)N)NC(=O)CSC[C@@H](C(=O)N[C@@H](CCN)C(=O)NCCOCCOCC(=O)NCCCCCCCCCCC(=O)O)NC(=O)[C@H](CCCN)NC(=O)[C@H](C(C)C)NC(=O)[C@H](CC3CCCCC3)NC(=O)[C@H](CCN)NC(=O)[C@@H](CC(C)C)NC(=O)[C@H](CCN)NC(=O)[C@H](C(C)C)NC(=O)[C@H](Cc3ccc(-c4ccccc4)cc3)NC(=O)[C@H](C(C)C)NC2=O)c1 [Compound 3252] ({CH2CO}-[hArg]Y(Carboxymethyl)D[Phe(3-Me)]V[Bip]V[Dab][dL][Dab][Cha]V[Orn]C[Dab][AEEA][Aun]-OH; thioether N-14)
10 | 8.8 | CC(C)C[C@H]1NC(=O)[C@H](CCN)NC(=O)[C@H](C(C)C)NC(=O)[C@H](Cc2ccc(-c3ccccc3)cc2)NC(=O)[C@H](C(C)C)NC(=O)[C@H](Cc2c[nH]c3ccccc23)NC(=O)[C@H](CC(=O)O)NC(=O)[C@H](Cc2ccc(OCC(=O)O)cc2)NC(=O)[C@H](C(C)O)NC(=O)CSC[C@@H](C(=O)N[C@@H](CCN)C(=O)NCCCCCCCCCCC(=O)O)NC(=O)[C@H](CCCNC(N)=O)NC(=O)[C@H](C(C)C)NC(=O)[C@H](CC2CCCCC2)NC(=O)[C@H](CCN)NC1=O (stereo partly drawn) [Compound 3253] ({CH2CO}-[Thr(3ξ)]Y(Carboxymethyl)DWV[Bip]V[Dab][dL][Dab][Cha]V[Cit]C[Dab][Aun]-OH; thioether N-14)
